Measurements from patent publication US20080234262A1 (Wyeth, priority 2007, published 2008).
Where two headings read alike, the source gives them in different places.

Columns and labels:
PI3K = PI3K (Homo sapiens, UniProt P42336); assay: Fluorescence polarization assay for PI3K; assay type: biochemical; conditions: PI3Kα, read-out: PI3Kα IC50;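 note: PI3K kinase reaction on PIP2 with ATP, 30-60 min, product sensed by GST-GRP with red probe in fluorescence polarization (mP), controls without enzyme and at zero time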
PI3K, sequence (P42336 whole entry): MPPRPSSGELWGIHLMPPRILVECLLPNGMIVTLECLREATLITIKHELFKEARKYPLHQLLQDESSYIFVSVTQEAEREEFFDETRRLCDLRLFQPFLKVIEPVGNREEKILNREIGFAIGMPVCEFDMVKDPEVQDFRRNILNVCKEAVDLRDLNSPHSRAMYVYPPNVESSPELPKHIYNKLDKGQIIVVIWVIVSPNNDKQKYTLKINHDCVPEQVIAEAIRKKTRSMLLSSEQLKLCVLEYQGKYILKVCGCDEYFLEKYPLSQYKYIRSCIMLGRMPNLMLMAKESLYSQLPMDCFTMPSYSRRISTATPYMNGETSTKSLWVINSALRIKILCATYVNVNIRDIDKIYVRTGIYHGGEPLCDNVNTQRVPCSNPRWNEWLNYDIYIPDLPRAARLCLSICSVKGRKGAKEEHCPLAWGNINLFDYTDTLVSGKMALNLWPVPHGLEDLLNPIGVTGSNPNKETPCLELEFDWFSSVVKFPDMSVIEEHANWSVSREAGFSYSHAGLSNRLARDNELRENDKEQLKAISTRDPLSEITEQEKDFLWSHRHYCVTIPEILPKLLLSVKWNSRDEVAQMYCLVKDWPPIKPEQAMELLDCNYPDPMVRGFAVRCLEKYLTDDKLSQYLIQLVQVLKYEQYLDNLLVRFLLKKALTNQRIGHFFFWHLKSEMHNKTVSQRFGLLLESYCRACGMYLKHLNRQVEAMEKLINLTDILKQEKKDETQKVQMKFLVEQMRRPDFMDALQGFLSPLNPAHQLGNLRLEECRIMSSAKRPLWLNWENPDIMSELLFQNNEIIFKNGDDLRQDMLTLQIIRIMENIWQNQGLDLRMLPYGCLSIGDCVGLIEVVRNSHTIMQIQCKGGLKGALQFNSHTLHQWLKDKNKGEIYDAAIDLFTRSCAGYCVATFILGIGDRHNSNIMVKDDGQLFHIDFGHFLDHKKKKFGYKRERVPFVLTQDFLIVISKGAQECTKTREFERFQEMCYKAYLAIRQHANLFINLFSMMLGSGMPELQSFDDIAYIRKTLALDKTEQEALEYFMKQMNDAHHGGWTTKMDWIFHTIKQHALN
PI3K, sequence (P27986 whole entry partner): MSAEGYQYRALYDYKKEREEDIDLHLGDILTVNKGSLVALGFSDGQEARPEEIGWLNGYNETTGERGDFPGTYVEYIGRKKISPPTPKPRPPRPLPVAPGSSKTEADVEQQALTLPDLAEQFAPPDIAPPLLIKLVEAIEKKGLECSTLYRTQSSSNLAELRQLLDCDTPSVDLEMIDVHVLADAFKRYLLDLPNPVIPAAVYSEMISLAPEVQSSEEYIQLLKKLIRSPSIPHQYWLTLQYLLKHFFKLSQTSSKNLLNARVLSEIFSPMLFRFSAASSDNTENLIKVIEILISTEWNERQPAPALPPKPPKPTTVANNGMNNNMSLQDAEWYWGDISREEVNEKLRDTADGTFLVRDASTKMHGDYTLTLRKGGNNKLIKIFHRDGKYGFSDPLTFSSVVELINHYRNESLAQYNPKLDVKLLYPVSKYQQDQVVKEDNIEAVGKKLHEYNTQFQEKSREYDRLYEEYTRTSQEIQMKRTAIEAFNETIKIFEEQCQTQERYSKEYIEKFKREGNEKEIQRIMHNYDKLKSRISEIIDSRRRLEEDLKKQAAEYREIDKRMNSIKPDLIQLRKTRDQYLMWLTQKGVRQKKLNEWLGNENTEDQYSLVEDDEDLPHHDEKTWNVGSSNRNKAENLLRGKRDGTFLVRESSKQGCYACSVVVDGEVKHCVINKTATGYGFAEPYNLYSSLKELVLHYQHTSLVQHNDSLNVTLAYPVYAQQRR

Human mTOR (FLAG-TOR) = biological target: T1, Human mTOR (FLAG-TOR) (Homo sapiens, UniProt P42345); assay: Human mTOR kinase assay with purified enzyme, DELFIA format; assay type: biochemical
T1 construct: FLAG

prostate line LNCap = assay: In vitro cell culture growth assay (MTS), LNCap; assay type: cell-based, human; conditions: LNCap cells, three days after drug treatment
breast line MDA468 = assay: In vitro cell culture growth assay (MTS), MDA468; assay type: cell-based, human; conditions: MDA468 cells, three days after drug treatment
Outline: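 MDA468 or LNCap cells received inhibitors one day after plating and were grown for three days. Viable cell density read by MTS conversion, absorbance 490 nm, expressed as percent of control growth versus vehicle-treated cells on the same plate.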

IC50 (PI3K) [nM] | IC50 (PI3K; listed as 74) [nM] | IC50 (prostate line LNCap; Homo sapiens, LNCaP, 72 h) [nM] | IC50 (prostate line LNCap) [nM] | Compound | IC50 (Human mTOR (FLAG-TOR)) [nM] | IC50 (breast line MDA468; Homo sapiens, 72 h) [nM] | IC50 (breast line MDA468) [nM]
1430 | – | – | – | 1-Ethyl-3-(4-{1-[1-(4-hydroxy-butyl)-piperidin-4-yl]-4-morpholin-4-yl-1H-pyrazolo[3,4-d]pyrimidin-6-yl}-phenyl)-urea [Example 52] | 11.5 | – | –
8770 | 8570 | – | – | 4-(6-(3-hydroxyphenyl)-1-phenyl-1H-pyrazolo[3,4-d]pyrimidin-4-yl)morpholin-3-one [Example 73] | 380 | – | –
9130 | – | – | – | 1-(4-{4-(2-hydroxymorpholin-4-yl)-1-[1-(pyridin-3-ylmethyl)piperidin-4-yl]-1H-pyrazolo[3,4-d]pyrimidin-6-yl}phenyl)-3-methylurea [Example 61] | 300 | – | –
– | – | – | – | 4-(4-morpholin-4-yl-1-phenyl-1H-pyrazolo[3,4-d]pyrimidin-6-yl)aniline [Example 10] | 215 | – | –
1750 | – | – | – | 1-(2-Fluoro-ethyl)-3-(4-{1-[1-(4-hydroxy-butyl)-piperidin-4-yl]-4-morpholin-4-yl-1H-pyrazolo[3,4-d]pyrimidin-6-yl}-phenyl)-urea [Example 54] | 29 | – | –
8200 | – | – | – | 5-[1-(1-Benzyl-piperidin-4-yl)-4-morpholin-4-yl-1H-pyrazolo[3,4-d]pyrimidin-6-yl]-1,3-dihydro-benzoimidazol-2-one [Example 35] | 130 | – | –
590 | – | 20 | – | CCOC(=O)N1CCC(n2ncc3c(N4CCOC[C@H]4C)nc(-c4ccc(NC(=O)Nc5ccccc5)cc4)nc32)CC1 [Compound 891, ethyl 4-(4-[(3R)-3-methylmorpholin-4-yl]-6-{4-[(phenylcarbamoyl)amino]phenyl}-1H-pyrazolo[3,4-d]pyrimidin-1-yl)piperidine-1-carboxylate] | – | 210 | –
2030 | – | 110 | – | CC(C)C(=O)N1CCC(n2ncc3c(N4CCOCC4)nc(-c4ccc(NC(=O)NC5CC5)cc4)nc32)CC1 [Compound 824, 1-cyclopropyl-3-{4-[1-(1-isobutyrylpiperidin-4-yl)-4-morpholin-4-yl-1H-pyrazolo[3,4-d]pyrimidin-6-yl]phenyl}urea] | – | 700 | –
4300 | – | 7500 | – | CC(C)(C)OC(=O)N1CCC[C@@H](n2ncc3c(N4CCOCC4)nc(-c4ccc(N)cc4)nc32)C1 [Compound 871, tert-butyl (3R)-3-[6-(4-aminophenyl)-4-morpholin-4-yl-1H-pyrazolo[3,4-d]pyrimidin-1-yl]piperidine-1-carboxylate] | – | 2300 | –
1810 | – | 800 | – | CONC(=O)Nc1ccc(-c2nc(N3CCOCC3)c3cnn(C4CCN(C(=O)c5cccnc5)CC4)c3n2)cc1 [Example 308, 1-methoxy-3-(4-{4-morpholin-4-yl-1-[1-(pyridin-3-ylcarbonyl)piperidin-4-yl]-1H-pyrazolo[3,4-d]pyrimidin-6-yl}phenyl)urea] | – | 3000 | –
1620 | – | 900 | – | CCNC(=O)Nc1ccc(-c2nc(N3CCOCC3)c3cnn(C4CCN(C(=O)c5cccnc5)CC4)c3n2)c(F)c1 [Example 462, 1-ethyl-3-(3-fluoro-4-{4-morpholin-4-yl-1-[1-(pyridin-3-ylcarbonyl)piperidin-4-yl]-1H-pyrazolo[3,4-d]pyrimidin-6-yl}phenyl)urea] | – | 900 | –
74 | – | 540 | – | CNC(=O)Nc1ccc(-c2nc(N3CCOCC3)c3cnn(C4CCS(=O)(=O)CC4)c3n2)cc1 [Compound 869, 1-{4-[1-(1,1-dioxidotetrahydro-2H-thiopyran-4-yl)-4-morpholin-4-yl-1H-pyrazolo[3,4-d]pyrimidin-6-yl]phenyl}-3-methylurea] | – | 590 | –
65 | – | 27 | – | CNC(=O)Nc1ccc(-c2nc(N3CCOCC3)c3cnn(C4CCN(Cc5ccccn5)CC4)c3n2)cc1 [Example 331, 1-methyl-3-(4-{4-morpholin-4-yl-1-[1-(pyridin-2-ylmethyl)piperidin-4-yl]-1H-pyrazolo[3,4-d]pyrimidin-6-yl}phenyl)urea] | – | 500 | –
3050 | – | 3300 | – | COCCOC(=O)Nc1ccc(-c2nc(N3CCOCC3)c3cnn(C4CCN(C(=O)OC)CC4)c3n2)cc1 [Compound 902, methyl 4-[6-(4-{[(2-methoxyethoxy)carbonyl]amino}phenyl)-4-morpholin-4-yl-1H-pyrazolo[3,4-d]pyrimidin-1-yl]piperidine-1-carboxylate] | – | > 60000 | –
1160 | – | 1050 | – | O=C(c1ccc(Br)nc1)N1CCC(n2ncc3c(N4CCOCC4)nc(-c4ccc5[nH]ccc5c4)nc32)CC1 [Compound 203] | – | 3000 | –
100 | – | – | 80 | CNC(=O)Nc1ccc(-c2nc(N3CCOCC3)c3cnn(C4CCN(C(=O)c5cccnc5Cl)CC4)c3n2)cc1 [Compound 669, 1-[4-(1-{1-[(2-chloropyridin-3-yl)carbonyl]piperidin-4-yl}-4-morpholin-4-yl-1H-pyrazolo[3,4-d]pyrimidin-6-yl)phenyl]-3-methylurea] | – | – | 460
721 | – | 70 | – | CCNC(=O)Nc1ccc(-c2nc(N3CCOC(C)C3)c3cnn(C4CCN(C(=O)OC)CC4)c3n2)cc1 (centres unmarked) [Compound 842, methyl 4-[6-{4-[(ethylcarbamoyl)amino]phenyl}-4-(2-methylmorpholin-4-yl)-1H-pyrazolo[3,4-d]pyrimidin-1-yl]piperidine-1-carboxylate] | – | 1000 | –
3750 | – | 2500 | – | CC(C)N1CCC(n2ncc3c(N4CCOCC4)nc(-c4ccc5[nH]ccc5c4)nc32)CC1 [Compound 238, 6-(1H-indol-5-yl)-1-(1-isopropylpiperidin-4-yl)-4-morpholin-4-yl-1H-pyrazolo[3,4-d]pyrimidine] | – | 2900 | –

Compound | IC50 (PI3K) [nM] | IC50 (PI3K; listed as 74) [nM] | IC50 (prostate line LNCap; Homo sapiens, LNCaP, 72 h) [nM] | IC50 (prostate line LNCap) [nM] | IC50 (Human mTOR (FLAG-TOR)) [nM] | IC50 (breast line MDA468; Homo sapiens, 72 h) [nM] | IC50 (breast line MDA468) [nM]
3-[4-(1,4-oxazepan-4-yl)-1-phenyl-1H-pyrazolo[3,4-d ]pyrimidin-6-yl]phenol [Example 75] | 10000 | – | – | – | ≥ 20000 | – | –
1-{4-[1-(1-Benzyl-piperidin-4-yl)-4-morpholin-4-yl-1H-pyrazolo[3,4-d]pyrimidin-6-yl]-phenyl}-3-methyl-thiourea [Example 34] | 1110 | – | – | – | 1200 | – | –
3-(4-Morpholin-4-yl-1-piperidin-4-yl-1H-pyrazolo[3,4-d]pyrimidin-6-yl)-phenol [Example 5] | 440 | – | – | – | 240 | – | –
4-{6-[4-(2,3-Dimethyl-isothioureido)-phenyl]-4-morpholin-4-yl-pyrazolo[3,4-d]pyrimidin-1-yl}-piperidine-1-carboxylic acid isopropyl ester [Example 57] | 1700 | – | – | – | 118 | – | –
